Test system: 556581-035-R-J1 tumor spheroid viability, % test/control
Assay: Anticancer human tumor 556581-035-R-J1 patient-derived ovarian carcinoma cell line growth inhibition
Details: spheroids with HUVEC and MSC; for IC50: curve of first compound; for viability, T/C: stronger effect = lower value
How it was run: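 Complex spheroids of malignant cells with endothelial cells and mesenchymal stem cells; agents alone or combined, from near clinical Cmax (or 10 microM if unknown) down in half-log steps, 0.25% DMSO final.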

[1] = second compound 30 pM, first compound 0.00949 µM
[2] = second compound 30 pM, first compound 0.03 µM
[3] = second compound 30 pM, first compound 0.0949 µM
[4] = second compound 30 pM, first compound 0.3 µM
[5] = second compound 30 pM, first compound 0.949 µM
[6] = second compound 30 pM, first compound 3 µM
[7] = second compound 94.9 pM, first compound 0.00949 µM
[8] = second compound 94.9 pM, first compound 0.03 µM
[9] = second compound 94.9 pM, first compound 0.0949 µM
[10] = second compound 94.9 pM, first compound 0.3 µM
[11] = second compound 94.9 pM, first compound 0.949 µM
[12] = second compound 94.9 pM, first compound 3 µM
[13] = second compound 0.0003 µM, first compound 0.00949 µM
[14] = second compound 0.0003 µM, first compound 0.03 µM
[15] = second compound 0.0003 µM, first compound 0.0949 µM
[16] = second compound 0.0003 µM, first compound 0.3 µM
[17] = second compound 0.0003 µM, first compound 0.949 µM
[18] = second compound 0.0003 µM, first compound 3 µM
[19] = second compound 0.000949 µM, first compound 0.00949 µM
[20] = second compound 0.000949 µM, first compound 0.03 µM
[21] = second compound 0.000949 µM, first compound 0.0949 µM
[22] = second compound 0.000949 µM, first compound 0.3 µM
[23] = second compound 0.000949 µM, first compound 0.949 µM
[24] = second compound 0.000949 µM, first compound 3 µM
[25] = second compound 0.003 µM, first compound 0.00949 µM
[26] = second compound 0.003 µM, first compound 0.03 µM
[27] = second compound 0.003 µM, first compound 0.0949 µM
[28] = second compound 0.003 µM, first compound 0.3 µM
[29] = second compound 0.003 µM, first compound 0.949 µM
[30] = second compound 0.003 µM, first compound 3 µM
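Note: spheroids exposed to compounds for 7 days before viability read.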

| Structure (SMILES) | IC50 (second compound 30 pM) [nM] | IC50 (second compound 94.9 pM) [nM] | IC50 (second compound 0.0003 µM) [nM] | IC50 (second compound 0.000949 µM) [nM] | IC50 (second compound 0.003 µM) [nM] | viability, T/C [3] [%] | viability, T/C [4] [%] | viability, T/C [5] [%] | viability, T/C [6] [%] | viability, T/C [9] [%] | viability, T/C [10] [%] | viability, T/C [11] [%] | viability, T/C [12] [%] | viability, T/C [15] [%] | viability, T/C [16] [%] | viability, T/C [17] [%] | viability, T/C [18] [%] | viability, T/C [21] [%] | viability, T/C [22] [%] | viability, T/C [23] [%] | other results |
| --- | --- | --- | --- | --- | --- | --- | --- | --- | --- | --- | --- | --- | --- | --- | --- | --- | --- | --- | --- | --- | --- |
| CNCc1ccc(-c2cc(-c3nc(-c4ccc(S(=O)(=O)C(C)C)cc4)cnc3N)on2)cc1 + COc1cc2c(cc1O)CCNC21CSC2c3c(OC(C)=O)c(C)c4c(c3C(COC1=O)N1C(O)C3Cc5cc(C)c(OC)c(O)c5C(C21)N3C)OCO4 | 1610 | 1240 | 725 | < 9.49 | < 9.49 | 108 | 108 | 69.4 | 27.1 | 105 | 96.1 | 61 | 13.6 | 107 | 94.3 | 36.5 | 11 | 25.6 | 9.62 | 2.92 | viability, T/C [1]: 99.4%; viability, T/C [2]: 108%; viability, T/C [7]: 105%; viability, T/C [8]: 102%; viability, T/C [13]: 94.4%; viability, T/C [14]: 97.1%; viability, T/C [19]: 28.1%; viability, T/C [20]: 38.3%; viability, T/C [24]: 0.33%; viability, T/C [25]: 0.74%; viability, T/C [26]: 0.64%; viability, T/C [27]: 0.49%; viability, T/C [28]: 0.47%; viability, T/C [29]: 0.42%; viability, T/C [30]: 0.33% |
| Cc1sc2c(c1C)C(c1ccc(Cl)cc1)=NC(CC(=O)Nc1ccc(O)cc1)c1nnc(C)n1-2 (stereo not given) + COc1cc2c(cc1O)CCNC21CSC2c3c(OC(C)=O)c(C)c4c(c3C(COC1=O)N1C(O)C3Cc5cc(C)c(OC)c(O)c5C(C21)N3C)OCO4 | > 3000 | > 3000 | 782 | < 9.49 | < 9.49 | 83.8 | 80.1 | 72.1 | 63.5 | 87.4 | 75.8 | 71 | 54.9 | 80.3 | 64.4 | 47.4 | 35.4 | 15.9 | 5.84 | 1.81 | viability, T/C [1]: 107%; viability, T/C [2]: 101%; viability, T/C [7]: 112%; viability, T/C [8]: 102%; viability, T/C [13]: 90.1%; viability, T/C [14]: 88.2%; viability, T/C [19]: 21.7%; viability, T/C [20]: 18.8%; viability, T/C [24]: 0.31%; viability, T/C [25]: 0.52%; viability, T/C [26]: 0.55%; viability, T/C [27]: 0.44%; viability, T/C [28]: 0.36%; viability, T/C [29]: 0.97%; viability, T/C [30]: 1.24% |
| Cn1ncnc1[C@H]1c2n[nH]c(=O)c3cc(F)cc(c23)N[C@@H]1c1ccc(F)cc1 + COc1cc2c(cc1O)CCNC21CSC2c3c(OC(C)=O)c(C)c4c(c3C(COC1=O)N1C(O)C3Cc5cc(C)c(OC)c(O)c5C(C21)N3C)OCO4 | > 3000 | > 3000 | 2230 | < 9.49 | < 9.49 | 93.5 | 86.7 | 74.5 | 58.7 | 89.5 | 84.9 | 69.7 | 51.7 | 84.1 | 79.1 | 68.7 | 43.4 | 31.8 | 28.1 | 7.63 | viability, T/C [1]: 100%; viability, T/C [2]: 96.7%; viability, T/C [7]: 99.7%; viability, T/C [8]: 97.7%; viability, T/C [13]: 85.6%; viability, T/C [14]: 91.8%; viability, T/C [19]: 39.6%; viability, T/C [20]: 33.9%; viability, T/C [24]: 1.54%; viability, T/C [25]: 0.96%; viability, T/C [26]: 0.99%; viability, T/C [27]: 0.97%; viability, T/C [28]: 1.34%; viability, T/C [29]: 1.27%; viability, T/C [30]: 1.68% |
| O=C(c1cc(Cc2n[nH]c(=O)c3ccccc23)ccc1F)N1CCN(C(=O)C2CC2)CC1 + COc1cc2c(cc1O)CCNC21CSC2c3c(OC(C)=O)c(C)c4c(c3C(COC1=O)N1C(O)C3Cc5cc(C)c(OC)c(O)c5C(C21)N3C)OCO4 | > 30000 | > 30000 | > 30000 | < 94.9 | < 94.9 | 104 | 105 | 103 | 93.7 | 98.1 | 103 | 96.2 | 90 | 89.5 | 88.7 | 88.6 | 87.2 | 35 | 27.9 | 27.9 | viability, T/C (second compound 30 pM, first compound 9.49 µM): 79.7%; viability, T/C (second compound 30 pM, first compound 30 µM): 63.5%; viability, T/C (second compound 94.9 pM, first compound 9.49 µM): 75.6%; viability, T/C (second compound 94.9 pM, first compound 30 µM): 63%; viability, T/C (second compound 0.0003 µM, first compound 9.49 µM): 66.8%; viability, T/C (second compound 0.0003 µM, first compound 30 µM): 50.1%; viability, T/C [24]: 23.4%; viability, T/C (second compound 0.000949 µM, first compound 9.49 µM): 7.48%; viability, T/C (second compound 0.000949 µM, first compound 30 µM): 1.51%; viability, T/C [27]: 0.86%; viability, T/C [28]: 0.88%; viability, T/C [29]: 0.88%; viability, T/C [30]: 1.14%; viability, T/C (second compound 0.003 µM, first compound 9.49 µM): 1.42%; viability, T/C (second compound 0.003 µM, first compound 30 µM): 2.1% |

Reference: PubChem BioAssay AID1845199 (Molecular Pharmacology Branch, DTP, NCI, 2023)
